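Assay format: 96-well plates, 48-hour exposure. The concentration for full growth arrest is given as TGI.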
What was measured:
Test in all cases: inhibition of tumour cell growth, NCI panel, 48 h
MALME-3M melanoma = test system: MALME-3M melanoma
HOP-18 NSCLC = test system: HOP-18 NSCLC
SF-268 CNS = test system: SF-268 CNS
LXFL 529 NSCLC = test system: LXFL 529 NSCLC
SF-539 CNS = test system: SF-539 CNS
HCT-116 colon = test system: HCT-116 colon
SK-MEL-28 melanoma = test system: SK-MEL-28 melanoma
KM20L2 colon = test system: KM20L2 colon
CCRF-CEM leukemia = test system: CCRF-CEM leukemia
EKVX NSCLC = test system: EKVX NSCLC
OVCAR-4 ovarian = test system: OVCAR-4 ovarian
A549 NSCLC = test system: A549 NSCLC
OVCAR-8 ovarian = test system: OVCAR-8 ovarian
NCI-H460 lung = test system: NCI-H460 lung
COLO 205 colon = test system: COLO 205 colon
RPMI-8226 leukemia = test system: RPMI-8226 leukemia
RXF-631 renal = test system: RXF-631 renal
IGROV1 ovarian = test system: IGROV1 ovarian
NCI-H522 lung = test system: NCI-H522 lung
ACHN renal = test system: ACHN renal
SK-OV-3 ovarian = test system: SK-OV-3 ovarian
HCT-15 colon = test system: HCT-15 colon
DLD-1 colon = test system: DLD-1 colon
SNB-19 CNS = test system: SNB-19 CNS
HL-60(TB) leukemia = test system: HL-60(TB) leukemia
SR leukemia = test system: SR leukemia
A498 renal = test system: A498 renal
CAKI-1 renal = test system: CAKI-1 renal
SNB-75 CNS = test system: SNB-75 CNS
HCC-2998 colon = test system: HCC-2998 colon
UO-31 renal = test system: UO-31 renal
M14 melanoma = test system: M14 melanoma
SNB-78 CNS = test system: SNB-78 CNS
M19-MEL melanoma = test system: M19-MEL melanoma
786-0 renal = test system: 786-0 renal
HOP-62 NSCLC = test system: HOP-62 NSCLC
RXF 393 renal = test system: RXF 393 renal
KM12 colon = test system: KM12 colon
NCI-H226 lung = test system: NCI-H226 lung
SW-620 colon = test system: SW-620 colon
UACC-257 melanoma = test system: UACC-257 melanoma
DMS 273 small cell lung = test system: DMS 273 small cell lung
U251 CNS = test system: U251 CNS
SN12C renal = test system: SN12C renal
DMS 114 small cell lung = test system: DMS 114 small cell lung
OVCAR-3 ovarian = test system: OVCAR-3 ovarian
SK-MEL-2 melanoma = test system: SK-MEL-2 melanoma
MOLT-4 leukemia = test system: MOLT-4 leukemia
K-562 leukemia = test system: K-562 leukemia
UACC-62 melanoma = test system: UACC-62 melanoma
SK-MEL-5 melanoma = test system: SK-MEL-5 melanoma
TK-10 renal = test system: TK-10 renal
OVCAR-5 ovarian = test system: OVCAR-5 ovarian
NCI-H23 lung = test system: NCI-H23 lung
LOX IMVI melanoma = test system: LOX IMVI melanoma
HT29 colon = test system: HT29 colon
HOP-92 NSCLC = test system: HOP-92 NSCLC

Measured: TGI

C=CCC12CCC(=O)C=C1CCC1(C2)OCCO1 (stereo not drawn)
not listed: OVCAR-5 ovarian | NCI-H23 lung | LOX IMVI melanoma | HT29 colon | HOP-92 NSCLC
> 100 µM: all other assays above

COc1ccc(C[C@H](N)C(=O)N2C[C@H](CO)C[C@H](n3cnc4c(N(C)C)ncnc43)C2)cc1
not listed: RXF-631 renal | A498 renal | SNB-75 CNS | SNB-78 CNS | 786-0 renal | UACC-257 melanoma
> 100 µM: all other assays above
